Data on 2 compounds can be found in patent US20250107523A1, “TRIGGERING DIATOM PROGRAMMED CELL DEATH BY STIMULATING INFOCHEMICAL SIGNALING SYSTEMS” (BATTELLE MEMORIAL INSTITUTE, priority 2023, published 2025).

For assay [1], the system named is freshwater diatom Encyonema minutum var. pseudogracialis (Em). The experiment in a line: Lethality experiments on diatom Em in 96-well plates, live/dead count by Neutral Red vital staining. Format: cell-based. Conditions: 10 μM TDD alone; ~24 hours, 20° C.; n=3.
Description: Em was maintained and tested at BMI in a modified filter-sterilized CR1-S algal medium with no soil particles so as to improve visualization and counting speed and accuracy.
All experiments were conducted in untreated polystyrene 96-well plates. Total liquid volume added to each well was 200 μL for all assays. At the start of each experiment, a conical tube of diatom Em was split into two and given fresh media (1:1 algae:media), then examined under a microscope to confirm vitality.
Lethality experiments were conducted with 6 different commercial algicides (AlgaeFix™, DINO X, Aquathol® K, Cutrine® Plus, GreenClean® PRO, and Hydrothol® 191 Granular) and two infochemicals (trans,trans-2,4-decadienal [TDD] and cholesterol-3-sulfate [C3S]). Fresh 50 mM or 25 mM stock solutions of each infochemical were prepared in DMSO immediately prior to each experiment. […]
Following incubation, 1.5 μL of filtered Neutral Red (0.8 g in 25 mL DI) for every 100 μL of solution (3 μL for 200 μL) was added to each well. […] A different staff member counted cells in 5 μL from each well using a hemocytometer under a microscope; this second staff member was not told which treatments were in which wells, so as to maintain single-blind data collection. Total cells were counted, along with live/dead characterization via Neutral Red vital cell staining, and time of well count completion.
In assay [2] the test system is model diatoms. The following applies: cited from earlier work.

On to `CCCCC/C=C/C=C/C=O` [TDD, trans,trans-2,4-decadienal], for which the “Single treatment: lethality above negative control” value in assay [1] came to 6.7%. Moreover, in assay [2], the “Level leading to programmed-cell-death / cell death” value is on record as “micromolar levels”.
For the compound `CC(C)CCC[C@@H](C)[C@H]1CC[C@H]2[C@@H]3CC=C4C[C@@H](OS(=O)(=O)O)CC[C@]4(C)[C@H]3CC[C@]12C` [C3S, cholesterol-3-sulfate, reference compound], the “Level leading to programmed-cell-death / cell death” value in assay [2] is “micromolar levels”.
